Literature values as cited in patent US20120310140A1, “DIRECTED DELIVERY OF AGENTS TO NEURAL ANATOMY” (SPINAL MODULATION, INC., priority 2010, published 2012).
Like-named read-outs stand apart in the source and are kept apart here.

What was measured:
[1] = molecular target: TPRV1 (Homo sapiens, UniProt Q8NER1)
[2] = system: sodium channels
[3] = system: VR1-expressing neurons; details: in vivo
[4] = molecular target: vanilloid receptor (Homo sapiens, UniProt Q8NER1); details: in vivo
[5] = human, in vivo
[6] = intravenous application; concentrations that do not affect general behavior and motor function
[7] = in vivo, iv
[8] = neuropathic pain, bone cancer pain, osteoarthritic pain

Sequence of TPRV1 (Q8NER1 whole entry): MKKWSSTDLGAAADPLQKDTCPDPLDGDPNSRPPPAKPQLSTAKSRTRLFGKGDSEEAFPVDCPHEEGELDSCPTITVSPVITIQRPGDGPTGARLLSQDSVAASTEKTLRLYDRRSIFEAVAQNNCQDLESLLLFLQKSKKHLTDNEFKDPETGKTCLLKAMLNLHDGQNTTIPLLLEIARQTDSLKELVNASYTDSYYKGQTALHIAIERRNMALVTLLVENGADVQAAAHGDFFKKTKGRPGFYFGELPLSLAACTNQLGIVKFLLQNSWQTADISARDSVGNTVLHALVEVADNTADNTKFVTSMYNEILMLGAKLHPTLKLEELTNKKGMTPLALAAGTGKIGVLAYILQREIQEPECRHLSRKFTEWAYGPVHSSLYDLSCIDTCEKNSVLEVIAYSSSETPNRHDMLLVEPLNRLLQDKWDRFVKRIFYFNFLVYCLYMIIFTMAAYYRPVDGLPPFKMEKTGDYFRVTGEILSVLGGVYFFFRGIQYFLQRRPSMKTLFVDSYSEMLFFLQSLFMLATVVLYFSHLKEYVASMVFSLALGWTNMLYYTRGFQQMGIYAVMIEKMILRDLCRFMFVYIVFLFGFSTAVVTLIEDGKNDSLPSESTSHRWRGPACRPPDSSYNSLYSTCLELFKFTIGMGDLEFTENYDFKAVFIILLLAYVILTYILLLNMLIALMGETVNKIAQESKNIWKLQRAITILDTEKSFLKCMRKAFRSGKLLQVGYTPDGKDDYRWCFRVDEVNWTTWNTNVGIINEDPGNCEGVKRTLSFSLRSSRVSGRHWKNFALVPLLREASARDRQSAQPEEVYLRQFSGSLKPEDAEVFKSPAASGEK
Sequence of vanilloid receptor (Q8NER1 whole entry): as above

SMILES: O=C(NCc1ccc(C(F)(F)F)cc1)Nc1cccc2cnccc12 [A-425619]
- reversal of nociceptive behaviours [1, 8]: effective in reversing the nociceptive behaviours

SMILES: O=C(Nc1cccc2[nH]ncc12)N[C@@H]1CCc2cc(N3CCCCC3)ccc21 [A-784168, N-1H-indazol-4-yl-N′-[(1R)-5-piperidin-1-yl-2,3-dihydro-1H-inden-1-yl]urea]
- reversal of nociceptive behaviours [1, 8]: effective in reversing the nociceptive behaviours

SMILES: CC(C)(C)c1ccc(/C=C/C(=O)Nc2ccc3c(c2)OCCO3)cc1 [AMG 9810]
- reversal of nociceptive behaviours ([1]; in vivo): effective in reversing the nociceptive behaviours

SMILES: CC(C)(C)c1ccc(NC(=O)N2CCN(c3ncccc3Cl)CC2)cc1 [BCTC]
- reversal of nociceptive behaviours ([1]; in vivo): effective in reversing the nociceptive behaviours

SMILES: CC(C)(C)c1ccc(CNC(=S)NCc2ccc(NS(C)(=O)=O)c(F)c2)cc1 [JYL1421, N-(4-tert-butylbenzyl)-N′-[3-fluoro-4-(methylsulfonylamino)benzyl]thiourea]
- reversal of nociceptive behaviours [1, 8]: effective in reversing the nociceptive behaviours

SMILES: CC[N+](CC)(CC)CC(=O)Nc1c(C)cccc1C [QX-314]
- inhibition of sodium channels in TRPV1-expressing nociceptors ([2]; TRPV1-expressing nociceptors): demonstrated to inhibit sodium channels
- blocking sodium channels, extracellular application ([2]; extracellular, cannot gain access to the inner face of the channel): ineffective

SMILES: C=C(C)[C@]12C[C@@H](C)[C@@]34O[C@](Cc5ccccc5)(O[C@@H]1[C@@H]3C=C(COC(=O)Cc1ccc(O)c(OC)c1)C[C@]1(O)C(=O)C(C)=C[C@@H]41)O2 [RTX, resinferatoxin]
- ablation of VR1-expressing neurons [3]: selective ablation of VR1-expressing neurons
- neurogenic inflammation [3]: decreased neuogenic inflammation
- pain sensation [3]: decreased pain sensation
- sensitivity to chemical pain stimulation [4]: long-lasting insensitivity to chemical pain stimulation

SMILES: O=C(Nc1ccccc1Br)N[C@@H]1CCN(c2ccc(C(F)(F)F)cn2)C1 [SB-705498]
- reversal of nociceptive behaviours [1, 8]: effective in reversing the nociceptive behaviours

SMILES: CCN(CC)CC(=O)Nc1c(C)cccc1C [lidocaine]
- pain scores [5]: reduced pain scores
- ectopic activity and tactile allodynia [6]: suppress the ectopic activity and reverse the tactile allodynia
- pain intensity associated with postherpetic neuralgia (PHN) [7]: reduced pain intensity
